From article PMC5855875, “Teixobactin analogues reveal enduracididine to be non-essential for highly potent antibacterial activity and lipid II binding” (Chemical Science, 2017)
Converted amounts (≈) assume the structure as drawn. Bridge positions count the residues as written; N and C are the ends. Square brackets hold non-standard residues; d marks the D form. Peptide text beside a SMILES is read from it. d(aIle) = CC[C@H](C)[C@@H](N)C(=O)O; dNMeF = CN[C@H](Cc1ccccc1)C(=O)O

Experiments:
[1] = tested on: MRSA 2: MRSA DR 42412 (sputum); assay: microbe, parasite or virus in culture; conditions: for MIC / MIC (without polysorbate 80): 2: DR 42412 (sputum, 24 h); for MIC (with polysorbate 80): MRSA 2, MHB containing polysorbate 80 (0.002%, v/v)
Method: (§1) VIII. MIC testing (extended panel)
(§2) Bacterial cultures were grown overnight i n Mueller-Hinton Agar (MHA) plates and adjusted to a final concentration of 10 5 – 106 CFU/ml. 100 µl of inoculum in Meuller -Hinton broth (MHB) was mixed with equal volume of peptides (dissolved in MHB) at 2x their concentration in a 96 well plate. In parallel experiments, MIC values were determined in the media containing polysorbate 80 (0 .002%, v/v) to […]
(§3) prevent non-specific adsorption of the peptides to plastic surfaces. The final peptides concentrations […]
(§4) Positive and negative controls contained 200 µl of inoculum without any peptide dissolved in broth, respectively. The 96 well plates were then incubated at 37 °C for 24 h. […]
(§5) 80. Strain information: MRSA 1: MRSA ATCC 700699, MRSA 2: MRSA DR 42412 (sputum), MRSA
(§6) 3: MRSA DM21455 (eye). […] Staphylococcus aureus ATCC

[2] = tested on: Staphylococcus aureus ATCC 29213; assay: microbe, parasite or virus in culture; conditions: for MIC (with polysorbate 80): S. aureus ATCC 29213, MHB containing polysorbate 80 (0.002%, v/v); for MIC (with polysorbate 80) / MBC: 37 °C, 24 h; for MBC: Staphylococcus aureus ATCC 29213, plated on MHA
Method: as §1, §2, §3
(§7) Positive and negative controls contained 200 µl of inoculum without any peptide dissolved in broth, respectively. The 96 well plates were then incubated at 37 °C for 24 h.
(§8) All the experiments were performed in two independent duplicates and the MIC was determined as the […]
(§9) Minimum bactericidal concentration
(§10) The lowest concentration in which no visible colonies could be detected was taken as the MBC.
as §5, §6

[3] = tested on: MRSA 3: MRSA DM21455 (eye); assay: microbe, parasite or virus in culture; conditions: for MIC / MIC (without polysorbate 80): 3: DM21455 (eye, 24 h); for MBC: MRSA 3 (MRSA DM21455), plated on MHA; for MBC / MIC (with polysorbate 80): 37 °C, 24 h; for MIC (with polysorbate 80): MRSA 3, MHB containing polysorbate 80 (0.002%, v/v)
Method: as §1, §2, §3, §7, §8, §9, §10, §5, §6

[4] = tested on: MRSA 1: MRSA ATCC 700699; assay: microbe, parasite or virus in culture; conditions: for MIC / MIC (without polysorbate 80): ATCC 700699, 24 h; for MBC: MRSA 1 (MRSA ATCC 700699), plated on MHA; for MBC / MIC (with polysorbate 80): 37 °C, 24 h; for MIC (with polysorbate 80): MRSA 1, MHB containing polysorbate 80 (0.002%, v/v), two independent duplicates
Method: as §1, §2, §3, §7, §8, §9, §10, §5, §6

[5] = tested on: MRSA ATCC 33591; assay: microbe, parasite or virus in culture; conditions: for MIC: ATCC 33591, 24 h
Method: (§11) were grown in Mueller Hinton broth (Oxoid) in triplicate. All incubations were at 37°C. Dilutions were carried out in triplicate. 100 µl of autoclaved Mueller Hinton broth was added to wells 2-12 in a 96-well plate. 200 µl of the peptide was added to well one at a concentration of 256 µg/mL. 100µl of peptide in well one was taken up and pipetted into well two. The mixture was then mixed via pipetting before 100µl was taken up and pipetted into well three. This process was repeated up to well 11. Once […]
(§12) peptide present. Thus, the concentrations (in µg/mL) were: 256, 128, 64, 32, 16, 8, 4, 2, 1, 0.5, 0.25 and no peptide present. Each well was then inoculated with 100µl of bacteria that had been diluted to an […]
(§13) This was repeated three times. The 96-well plates were then incubated at 37°C for 24 hours. The MIC was determined to be the lowest concentration at which there was no growth visible. […]
(§14) was repeated at an altered initial concentration of 64 µg/ml. Therefore, the new concentrations for MIC […]
as §1, §2

[6] = tested on: VRE 1: VRE ATCC 700802; assay: organism not typed; conditions: for MIC (with polysorbate 80): VRE 1, MHB containing polysorbate 80 (0.002%, v/v), 37 °C, 24 h
Method: as §1, §2, §3, §4, §5, §6

[7] = tested on: VRE 2: VRE ATCC 29212; assay: organism not typed; conditions: for MIC (with polysorbate 80): VRE 2, MHB containing polysorbate 80 (0.002%, v/v), 37 °C, 24 h
Method: as §1, §2, §3, §4, §5, §6

[8] = tested on: MRSA DM21455; assay: Time-kill kinetics; format: cell-based, Methicillin-resistant Staphylococcus aureus; conditions: 0.5 μg mL^–1; MHB containing 0.002% v/v polysorbate 80; 37 °C; average of two independent experiments
Method: IX. Time-dependent killing of bacteria by teixobactin analogues 12 and 13 Time-kill kinetics against MRSA DM21455 strains (clinical isolates from patients) was carried out in MHB. Cultures were grown overnight in MHA plates and adjusted to a final inoculum of 10^5 – 10^6 CFU/ml in MHB (containing 0.002% v/v, polysorbate 80) with teixobactin analogues 12 and 13 maintained at a final concentration of 0.5 µg/ml. For vancomycin, the concentration was varied from 0.5 – 16 µg/ml without polysorbate 80. The tubes were then incubated at 37 °C. 100 µl of cell suspension was withdrawn at various time points (0, 2, 4, 8, 24 h), serially diluted (101-105 fold dilutions) and plated onto a MHA plates and incubated for 24 h at 37 °C.
Colonies were then enumerated […]. Colony counting too numerous to count (>300 colonies) was taken as 1010 CFU. Average values from two independent experiments are reported. […]
(also on this page, place not known: polyso rbate vancomycin , concentr ation 80 . wer e µ l (10 1-105 10 10 previously n - TL C three S76: (Ala10-teixobactin) literature.7 Lipid II Lipid II: Compound 8 = 1:1 Lipid II: Compound 16 = 1:1 Lipid II: Compound 8 = 1:2 Lipid II: Compound 16 = 1:2 Lipid II: Compound 8 = 1:4)

[9] = tested on: M. smegmatis ATCC 607; assay: microbe, parasite or virus in culture; conditions: ATCC 607, 72 h
Method: as §11, §12, §13, §14
Middlebrook 7H9 broth (SIGMA) supplemented to 5% Middlebrook ADC (SIGMA) growth

CC[C@H](C)[C@H](NC(=O)[C@@H](Cc1ccccc1)NC)C(=O)N[C@@H](CO)C(=O)N[C@H](CCC(N)=O)C(=O)N[C@@H](C(=O)N[C@H](C(=O)N[C@@H](CO)C(=O)N[C@H]1C(=O)N[C@@H](C)C(=O)N[C@@H](C(C)C)C(=O)N[C@@H]([C@@H](C)CC)C(=O)O[C@H]1C)[C@@H](C)CC)[C@@H](C)CC [Compound 11, Val10-teixobactin] (H-[dNMeF]IS[dQ][d(aIle)]IS[dT]AVI; ester 8-C) was tested, and the MIC [1] was 0.5 μg mL^–1, the “MIC (without polysorbate 80)” value [1] was 2 µg/mL (≈ 1.68 µM) and the MBC ([1]; MRSA 2 (MRSA DR 42412), plated on MHA, 37 °C, 24 h) was 4 μg mL^–1. For the same compound, the “MIC (with polysorbate 80)” value ([1]; 37 °C, 24 h) was 0.5 µg/mL (≈ 0.421 µM), the “MIC (without polysorbate 80)” value ([2]; ATCC 29213, 24 h) was 2 µg/mL (≈ 1.68 µM) and the “MIC (with polysorbate 80)” value [2] was 0.25 µg/mL (≈ 0.211 µM). The MBC [2] was 1 μg mL^–1, the MIC [3] was 0.25 μg mL^–1 and the “MIC (without polysorbate 80)” value [3] was 4 µg/mL (≈ 3.37 µM). The MBC [3] was 2 μg mL^–1, the “MIC (with polysorbate 80)” value [3] was 0.25 µg/mL (≈ 0.211 µM) and the MIC [4] was 1 μg mL^–1. The “MIC (without polysorbate 80)” value [4] was 4 µg/mL (≈ 3.37 µM), the MBC [4] was 4 μg mL^–1 and the “MIC (with polysorbate 80)” value [4] was 1 µg/mL (≈ 0.842 µM). The MIC [5] was 0.5 μg mL^–1, the “times better antibacterial activity than Arg10-teixobactin” value ([5]; from MIC against MRSA ATCC 33591) was 4 times and the MIC ([6]; ATCC 700802, 24 h) was 0.5 μg mL^–1. The “MIC (without polysorbate 80)” value ([6]; ATCC 700802, 24 h) was 4 µg/mL (≈ 3.37 µM), the “MIC (with polysorbate 80)” value [6] was 0.5 µg/mL (≈ 0.421 µM) and the MIC ([7]; ATCC 29212, 24 h) was 0.5 μg mL^–1. For the same compound, the “MIC (without polysorbate 80)” value ([7]; ATCC 29212, 24 h) was 4 µg/mL (≈ 3.37 µM) and the “MIC (with polysorbate 80)” value [7] was 0.5 µg/mL (≈ 0.421 µM).

With CC[C@H](C)[C@@H]1NC(=O)[C@H](C)NC(=O)[C@H](NC(=O)[C@H](CO)NC(=O)[C@@H](NC(=O)[C@H](NC(=O)[C@@H](CCC(N)=O)NC(=O)[C@H](CO)NC(=O)[C@@H](NC(=O)[C@@H](Cc2ccccc2)NC)[C@@H](C)CC)[C@@H](C)CC)[C@@H](C)CC)[C@H](C)OC(=O)[C@H]([C@@H](C)CC)NC1=O [Compound 12, Ile10-teixobactin] (H-[dNMeF]IS[dQ][d(aIle)]IS[dT]AII; ester 8-C) the MIC [1] was no more than 0.0625 μg mL^–1, the “MIC (without polysorbate 80)” value [1] was 2 µg/mL (≈ 1.66 µM) and the “MIC (with polysorbate 80)” value ([1]; 37 °C, 24 h) was no more than 0.0625 µg/mL. For the same compound, the “time to complete bactericidal activity” value [8] was no more than 8 h, the MIC ([2]; ATCC 29213, 24 h) was no more than 0.0625 μg mL^–1 and the “MIC (without polysorbate 80)” value ([2]; ATCC 29213, 24 h) was 1 µg/mL (≈ 0.832 µM). For the same compound, the “MIC (with polysorbate 80)” value [2] was no more than 0.0625 µg/mL, the MBC [2] was 0.125 μg mL^–1 and the MIC [3] was no more than 0.0625 μg mL^–1. For the same compound, the “MIC (without polysorbate 80)” value [3] was 2 µg/mL (≈ 1.66 µM), the MBC [3] was 0.125 μg mL^–1 and the “MIC (with polysorbate 80)” value [3] was no more than 0.0625 µg/mL. The MIC [4] was 0.25 μg mL^–1, the “MIC (without polysorbate 80)” value [4] was 2 µg/mL (≈ 1.66 µM) and the MBC [4] was 1 μg mL^–1. For the same compound, the “MIC (with polysorbate 80)” value [4] was 0.25 µg/mL (≈ 0.208 µM), the MIC [5] was 0.25 μg mL^–1 and the “MIC (without polysorbate 80)” value ([6]; ATCC 700802, 24 h) was 1 µg/mL (≈ 0.832 µM). For the same compound, the “MIC (with polysorbate 80)” value [6] was no more than 0.0625 µg/mL, the “MIC (without polysorbate 80)” value ([7]; ATCC 29212, 24 h) was 1 µg/mL (≈ 0.832 µM) and the “MIC (with polysorbate 80)” value [7] was no more than 0.0625 µg/mL. For the same compound, the MIC [9] was 0.5 μg mL^–1.
